A word on the Ki: it is a dissociation constant, usually derived from enzyme kinetics or from competition with a known ligand.

For one molecule, Ki results are on record in article PMC9032385, “A2A Adenosine Receptor Antagonists: Are Triazolotriazine and Purine Scaffolds Interchangeable?” (Molecules, 2022).

The target of this assay is T1, A2BAR (Homo sapiens, UniProt P29275).
T1 construct: expressed in transfected cells
T1 sequence (P29275 1-332): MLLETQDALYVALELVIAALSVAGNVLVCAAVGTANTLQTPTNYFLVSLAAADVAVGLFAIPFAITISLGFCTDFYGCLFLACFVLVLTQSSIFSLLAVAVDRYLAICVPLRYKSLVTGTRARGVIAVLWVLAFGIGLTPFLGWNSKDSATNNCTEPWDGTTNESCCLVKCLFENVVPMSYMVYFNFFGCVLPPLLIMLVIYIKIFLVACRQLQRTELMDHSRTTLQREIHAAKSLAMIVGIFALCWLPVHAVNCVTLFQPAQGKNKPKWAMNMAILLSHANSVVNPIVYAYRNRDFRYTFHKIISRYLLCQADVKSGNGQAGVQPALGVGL
The assay can be described thus: Functional study at A2BAR (GloSensor cAMP assay; inhibition of NECA-stimulated adenylyl cyclase activity). To be noted: Ki calculated from IC50 of inhibition of NECA-stimulated adenylyl cyclase activity, CHO cells. The assay is classed as cell-based. The method, then:
The affinities of the newly synthesized compounds 7–13 and 17–21 were determined in binding studies at human recombinant A1, A2A, and A3 ARs, stably transfected in Chinese hamster ovary (CHO) cells, using [^3H]CCPA (2-chloro-N^6-cyclopentylAdo), [^3H]NECA (5′-N-ethylcarboxamidoAdo), and [^3H]HEMADO (2-hexynyl-N^6-methylAdo) as respective radioligands. Most of the compounds were also evaluated at A2BARs in a functional study using the GloSensor cAMP assay. The results are reported in Table 1 as Ki values in nM (± standard errors). In the case of A2BARs, Ki-values were calculated from IC50-values determined by the inhibition of NECA-stimulated adenylyl cyclase activity.

Consider `CCn1c(-c2ccco2)nc2c(N)nc(NCCc3ccc(O)cc3)nc21` [compound 13, 4-(2-((6-Amino-9-ethyl-8-(furan-2-yl)-9H-purin-2-yl)amino)ethyl)phenol], for which the Ki was 1430 nM.
